US10294202B2, “Pyrrolidinones as herbicides” (FMC Corporation, priority 2013, dated 2019)

Assays:
barnyardgrass [1] = assay: Test B flooded paddy test; assay type: in vivo, Echinochloa crus-galli; conditions: Flood, scale of 0 to 100 where 0 is no effect and 100 is complete control
Method in brief: (§1)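 Treatment was made at the 2-leaf stage by dosing the standing floodwater, kept 3 cm above soil level for the whole test. Greenhouse exposure lasted 13 to 15 days. Response is a visual percent rating relative to controls, where a dash indicates no test result.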

morningglory = assay: Test A pre-/postemergence herbicide test; assay type: in vivo, Ipomoea spp.
Method in brief: (§2)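 Visual 0–100 ratings (100 = complete control) made about 10 days after treatment, greenhouse-held plants compared with untreated controls. Treatments: postemergence sprays on one- to two-leaf plants (2–10 cm tall) and preemergence directed soil sprays after planting in loam–sand, chemicals formulated in non-phytotoxic solvent containing surfactant.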

ducksalad [2] = assay: Test B flooded paddy test; assay type: in vivo, Heteranthera limosa; conditions: Flood, scale of 0 to 100 where 0 is no effect and 100 is complete control
Method in brief: as §1

wheat = assay: Test A pre-/postemergence herbicide test; assay type: in vivo, Triticum aestivum
Method in brief: as §2

sedge, umbrella [3] = assay: Test C flooded paddy test; assay type: in vivo, Cyperus difformis; conditions: Flood
Method in brief: (§3)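 Plants at the 2-leaf stage in pots flooded to 3 cm were treated by applying compound directly to the paddy water, with depth held throughout. After 13 to 15 days in a greenhouse, response was rated visually against controls on a 0 (no effect) to 100 (complete control) scale.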

crabgrass, large = assay: Test A pre-/postemergence herbicide test; assay type: in vivo, Digitaria sanguinalis
Method in brief: as §2

giant foxtail = assay: Test A pre-/postemergence herbicide test; assay type: in vivo, Setaria faberii
Method in brief: as §2

ducksalad [4] = assay: Test C flooded paddy test; assay type: in vivo, Heteranthera limosa; conditions: Flood
Method in brief: as §3

rice [5] = assay: Test B flooded paddy test; assay type: in vivo, Oryza sativa; conditions: Flood, scale of 0 to 100 where 0 is no effect and 100 is complete control
Method in brief: as §1

barnyardgrass [6] = assay: Test A pre-/postemergence herbicide test; assay type: in vivo, Echinochloa crus-galli
Method in brief: as §2

sedge, umbrella [7] = assay: Test B flooded paddy test; assay type: in vivo, Cyperus difformis; conditions: Flood, scale of 0 to 100 where 0 is no effect and 100 is complete control
Method in brief: as §1

corn = assay: Test A pre-/postemergence herbicide test; assay type: in vivo, Zea mays
Method in brief: as §2

barnyardgrass [8] = assay: Test C flooded paddy test; assay type: in vivo, Echinochloa crus-galli; conditions: Flood
Method in brief: as §3

velvetleaf = assay: Test A pre-/postemergence herbicide test; assay type: in vivo, Abutilon theophrasti
Method in brief: as §2

pigweed = assay: Test A pre-/postemergence herbicide test; assay type: in vivo, Amaranthus retroflexus
Method in brief: as §2

rice [9] = assay: Test C flooded paddy test; assay type: in vivo, Oryza sativa; conditions: Flood
Method in brief: as §3

sprangletop, Brdd. = assay: Test F flood (paddy) test; assay type: in vivo, Leptochloa fascicularis; conditions: 21 d, scale 0-100
From the text: (§4) Three plastic pots (ca. 16-cm diameter) per rate were partially filled with sterilized Tama silt loam soil comprising a 35:50:15 ratio of sand, silt and clay and 2.6% organic matter. Separate plantings for each of the three pots were as follows. Seeds from the U.S. of monochoria (Monochoria vaginalis), sedge, umbrella (small-flower umbrella sedge, Cyperus difformis), bulrush, […] bulrush, Scirpus juncoides), and […] (purple […] coccinea), were planted into one 16-cm pot for each rate. Seeds from the U.S. of flatsedge, rice (rice flatsedge, Cyperus iria), sprangletop, Brdd. (bearded sprangletop, Leptochloa fascicularis), one stand of 9 or 10 water seeded rice seedlings (Rice, W.S. Jap, Oryza sativa cv. 'Japonica-[…]' or Rice, W.S. Ind, 'Indica'), and two stands of 3 or 4 seedlings of rice, transplanted (transplanted rice, Oryza sativa cv. 'Japonica-[…]') were planted into one 16-cm pot for each rate. Seeds from the U.S. of barnyardgrass (Echinochloa crus-galli), […] (common […], Alisma plantago-aquatica), and watergrass, late (late watergrass, Echinochloa oryzicola) were planted into one 16-cm pot for each rate. Plantings were sequential so that crop and weed species were at the 2.0 to 2.5-leaf stage at time of treatment. Potted plants were grown in a greenhouse with day/night temperature settings of 30/27° C., and supplemental balanced lighting was provided to maintain a 16-h photoperiod. Test pots were maintained in the greenhouse until test completion. At time of treatment, test pots were flooded to 3 cm above the soil surface, treated by application of test compounds directly to the paddy water, and then maintained at that water depth for the duration of the test. Effects of treatments on rice and weeds were visually evaluated by comparison to untreated controls after 21 d. Plant response ratings, summarized in Table F, are based on a scale of 0 to 100 where 0 is no effect and 100 is complete control. A dash (-) response means no test result.

watergrass, late = assay: Test F flood (paddy) test; assay type: in vivo, Echinochloa oryzicola; conditions: 21 d, scale 0-100
From the text: as §4

monochoria = assay: Test F flood (paddy) test; assay type: in vivo, Monochoria vaginalis; conditions: 21 d, scale 0-100
From the text: as §4

Rice, W.S. Ind = assay: Test F flood (paddy) test; assay type: in vivo, Oryza sativa Indica; conditions: 21 d, scale 0-100
From the text: as §4

rice, transplanted = assay: Test F flood (paddy) test; assay type: in vivo, Oryza sativa cv. Japonica—M202; conditions: 21 d, scale 0-100
From the text: as §4

barnyardgrass [10] = assay: Test F flood (paddy) test; assay type: in vivo, Echinochloa crus-galli; conditions: 21 d, scale 0-100
From the text: as §4

[11] = Postemergence, 125 g ai/ha, 0 to 100 scale, 0 no effect, 100 complete control
[12] = Postemergence, 500 g ai/ha, 0 to 100 scale (0 no effect, 100 complete control)
[13] = Preemergence, 125 g ai/ha, visual rating on 0 to 100 scale (0 no effect, 100 complete control)
[14] = preemergence, 500 g ai/ha, 0 to 100 scale
[15] = 125 g ai/ha, scale of 0 to 100 where 0 is no effect and 100 is complete control, 13 to 15 days
[16] = Postemergence, 1000 g ai/ha, 0 to 100 scale (0 no effect, 100 complete control)
[17] = Preemergence, 1000 g ai/ha, visual rating on 0 to 100 scale (0 no effect, 100 complete control), approx. 10 days

O=C1NCC(c2cccc(Cl)c2)C1C(=O)Nc1ccccc1F (racemic) [Compound 89]
85: Plant response rating, Ducksalad (ducksalad [4]; 250 g ai/ha, scale 0 to 100)
100: Plant response rating, Ducksalad (ducksalad [4]; 500 g ai/ha, scale 0 to 100) | Plant response rating, Ducksalad (ducksalad [4]; 1000 g ai/ha, scale 0 to 100)
0: Plant response rating, Morningglory (morningglory; [11]) | Morningglory plant response rating (morningglory; [13]) | Plant response rating, Morningglory (morningglory; [14]) | Plant response rating, Wheat (wheat; [11]) | Wheat plant response rating (wheat; [13]) | Plant response rating, Sedge, Umbrella (sedge, umbrella [3]; [15]) | Plant response rating, Sedge, Umbrella (sedge, umbrella [3]; 250 g ai/ha, scale 0 to 100) | Plant response rating, Sedge, Umbrella (sedge, umbrella [3]; 500 g ai/ha, scale 0 to 100) | Plant response rating, Sedge, Umbrella (sedge, umbrella [3]; 1000 g ai/ha, scale 0 to 100) | Plant response rating, Sedge, Umbrella (sedge, umbrella [7]; 250 g ai/ha) | Plant response rating, Corn (corn; [11]) | Corn plant response rating (corn; [13]) | Plant response rating, Corn (corn; [14]) | Plant response rating, Velvetleaf (velvetleaf; [11]) | Plant response rating, Velvetleaf (velvetleaf; [12]) | Velvetleaf plant response rating (velvetleaf; [13]) | Plant response rating, Velvetleaf (velvetleaf; [14]) | Plant response rating, Pigweed (pigweed; [11]) | Pigweed plant response rating (pigweed; [13]) | Plant response rating, Pigweed (pigweed; [14]) | Plant response rating, Rice (rice [9]; [15]) | Plant response rating, Rice (rice [9]; 250 g ai/ha, scale 0 to 100) | Plant response rating, Rice (rice [9]; 500 g ai/ha, scale 0 to 100) | Plant response rating, Rice (rice [9]; 1000 g ai/ha, scale 0 to 100)
75: Plant response rating, Barnyardgrass (barnyardgrass [8]; 1000 g ai/ha, scale 0 to 100)
90: Plant response rating, Crabgrass, Large (crabgrass, large; [14]) | Plant response rating, Foxtail, Giant (giant foxtail; [14])
60: Plant response rating, Barnyardgrass (barnyardgrass [1]; 250 g ai/ha) | Plant response rating, Crabgrass, Large (crabgrass, large; [11]) | Plant response rating, Foxtail, Giant (giant foxtail; [11]) | Plant response rating, Barnyardgrass (barnyardgrass [6]; [11]) | Barnyardgrass plant response rating (barnyardgrass [6]; [13])
80: Plant response rating, Crabgrass, Large (crabgrass, large; [12]) | Crabgrass, Large plant response rating (crabgrass, large; [13]) | Plant response rating, Foxtail, Giant (giant foxtail; [12]) | Foxtail, Giant plant response rating (giant foxtail; [13]) | Plant response rating, Barnyardgrass (barnyardgrass [6]; [12]) | Plant response rating, Barnyardgrass (barnyardgrass [6]; preemergence, 500 g ai/ha, 0 to 100 scale (0 no effect, 100 complete control))
40: Plant response rating, Barnyardgrass (barnyardgrass [8]; 500 g ai/ha, scale 0 to 100)
20: Plant response rating, Wheat (wheat; [12]) | Plant response rating, Rice (rice [5]; 250 g ai/ha) | Plant response rating, Barnyardgrass (barnyardgrass [8]; [15]) | Plant response rating, Barnyardgrass (barnyardgrass [8]; 250 g ai/ha, scale 0 to 100) | Plant response rating, Pigweed (pigweed; [12])
70: Plant response rating, Ducksalad (ducksalad [2]; 250 g ai/ha) | Plant response rating, Ducksalad (ducksalad [4]; [15])
10: Plant response rating, Morningglory (morningglory; [12]) | Plant response rating, Wheat (wheat; [14])
30: Plant response rating, Corn (corn; [12])

O=C1NCC(c2ccc(F)c(F)c2)C1C(=O)Nc1ccccc1Cl (racemic) [Compound 99]
40: Plant response rating, Watergrass, Late (watergrass, late; 250 g ai/ha)
90: Plant response rating, Crabgrass, Large (crabgrass, large; [16]) | Plant response rating, Crabgrass, Large (crabgrass, large; [17]) | Plant response rating, Foxtail, Giant (giant foxtail; [16]) | Plant response rating, Foxtail, Giant (giant foxtail; [17]) | Plant response rating, Barnyardgrass (barnyardgrass [6]; [16]) | Plant response rating, Barnyardgrass (barnyardgrass [6]; [17])
75: Plant response rating, Sprangletop, Brdd. (sprangletop, Brdd.; 250 g ai/ha)
95: Plant response rating, Ducksalad (ducksalad [2]; 1000 g ai/ha) | Plant response rating, Monochoria (monochoria; 500 g ai/ha)
0: Plant response rating, Sprangletop, Brdd. (sprangletop, Brdd.; 125 g ai/ha) | Plant response rating, Morningglory (morningglory; [17]) | Plant response rating, Rice, W.S. Ind (Rice, W.S. Ind; 125 g ai/ha) | Plant response rating, Rice, W.S. Ind (Rice, W.S. Ind; 250 g ai/ha) | Plant response rating, Rice, W.S. Ind (Rice, W.S. Ind; 500 g ai/ha) | Plant response rating, Rice, Transplanted (rice, transplanted; 125 g ai/ha) | Plant response rating, Rice, Transplanted (rice, transplanted; 250 g ai/ha) | Plant response rating, Rice, Transplanted (rice, transplanted; 500 g ai/ha) | Plant response rating, Sedge, Umbrella (sedge, umbrella [7]; 1000 g ai/ha) | Plant response rating, Velvetleaf (velvetleaf; [17]) | Plant response rating, Pigweed (pigweed; [16]) | Plant response rating, Pigweed (pigweed; [17])
30: Plant response rating, Watergrass, Late (watergrass, late; 125 g ai/ha)
50: Plant response rating, Watergrass, Late (watergrass, late; 500 g ai/ha) | Plant response rating, Monochoria (monochoria; 125 g ai/ha) | Plant response rating, Barnyardgrass (barnyardgrass [10]; 250 g ai/ha)
10: Plant response rating, Morningglory (morningglory; [16]) | Plant response rating, Rice (rice [5]; 1000 g ai/ha) | Plant response rating, Velvetleaf (velvetleaf; [16])
20: Plant response rating, Wheat (wheat; [16]) | Plant response rating, Wheat (wheat; [17]) | Plant response rating, Corn (corn; [16]) | Plant response rating, Corn (corn; [17])
85: Plant response rating, Sprangletop, Brdd. (sprangletop, Brdd.; 500 g ai/ha) | Plant response rating, Monochoria (monochoria; 250 g ai/ha)
80: Plant response rating, Barnyardgrass (barnyardgrass [1]; 1000 g ai/ha) | Plant response rating, Barnyardgrass (barnyardgrass [10]; 500 g ai/ha)
25: Plant response rating, Barnyardgrass (barnyardgrass [10]; 125 g ai/ha)
